Test results taken from US20160235807A1, “AGONISTS OF GUANYLATE CYCLASE USEFUL FOR DOWNREGULATION OF PRO-INFLAMMATORY CYTOKINES” (SYNERGY PHARMACEUTICALS, INC., priority 2013, published 2016).
Bridge positions count the residues as written; N and C are the ends. Square brackets hold non-standard residues; d marks the D form. Ends that are not written are not given here.

Legend:
[1] = tested on: myeloperoxidase (MPO) activity in colon tissues; assay: MPO activity in lysates from mid-colon tissues, DSS-induced colitis in BDF-1 mice; format: in vivo, mouse; conditions: 5-ASA 100 mg/kg
Method: (§1) A total of 40 samples were chosen for analysis of MPO activity and Ki-67 labeling from the treatment groups that received SP-333, its vehicle control (0.1M phosphate buffer, pH 7) and the reference compound (5-ASA). A random number generator (www.random.org) was employed to select samples from these groups (7 from each of the SP-333-recipient groups and 6 from each of the vehicle and 5-ASA groups).
Myeloperoxidase activity in colonic tissue samples was performed according to the method described (Krawisc et al., 1984). Briefly, the rate of change in absorbance at 450 nm was recorded when 20 μl of tissue extract was incubated with […] of reaction buffer containing 0.26 mg/ml 0-dianisidine and 0.6 μl/ml H2O2. Each reaction was performed in triplicate. The rate of reaction was determined (initial slope) and normalized to protein concentration of sample.

[2] = tested on: DSS-induced colitis; assay: DSS-induced colitis in BDF-1 mice; format: in vivo, mouse
Method: To evaluate the efficacy of plecanatide in DSS induced colitis model, 48 BDF-1 mice were divided into 8 treatment groups (6 mice/group). One group was not exposed to DSS (untreated control) and groups 2-8 were treated with 5% DSS in the drinking water on day 0. Plecanatide or SP-333 solutions formulated in 0.1M phosphate buffer (pH 7) was administered by oral gavage, once a day at 0.005, 0.05, 0.5, 2.5 and 5 mg/kg, from study day −1 (i.e. prior to initiation of DSS treatment) through day 6 for SP-333 or day 7 for plecanatide. DSS treatment was initiated on day 0 for groups 2-8 until the end of the study. Sulfasalazine (80 mg/kg) or 5-ASA (100 mg/kg) was used as positive control and was administered daily. Mice were sacrificed on day 7. The large intestine was removed and weighed. Distal section of the large intestine was collected and fixed as described above.
Disease activity index (DAI) was calculated by scoring in-life parameters starting from day −1 until the end of the study. Once daily, all mice were weighed and assessed for stool consistency, and the presence of overt blood in the stool or around the anus essentially similar to that reported earlier. Colitis severity was assessed by histopathological analyses of H&E stained tissue sections (Hegazi et al., 2005; Dave et al., 2009) employing the following criteria: (score 0) normal appearing crypts; (score 1) abnormal crypt pathology without ulceration; (score 2) depleted crypts with ulceration; (score 3) 20-50% depleted crypts and increased ulceration; (score 4) >50% depleted crypts with substantial ulceration and (score 5) totally ulcerated/inflamed colon with no crypts remaining. All slides were scored in a blinded manner. Colitis severity in TCRα−/− model was scored as previously described^25. All slides were scored in a blinded manner. Disease activity index (DAI) was calculated by assessing body weight, stool consistency, and the presence of overt blood in stools or around the anus, essentially similar to that reported earlier (Hamamoto et al., 1999).

[3] = tested on: Ki-67 labeling of crypt epithelial cells; assay: Ki-67 labeling in large bowel cross sections, DSS-induced colitis in BDF-1 mice; format: in vivo, mouse; conditions: 5-ASA treated mice
Text: as §1
Employing standard procedures, two non-serial sections from each animal, were de-waxed in xylene and rehydrated in graded alcohols to PBS (pH 7.4). Endogenous peroxidase was blocked by incubation in 0.3% […] for 30 min. Antigen retrieval was performed by placing the slides in 1 L of citrate buffer (pH 6) and microwaving at high power for 20 minutes. After cooling for 15 minutes, sections were incubated with 10% normal goat serum for 30 minutes to block non-specific binding Primary antibody (mouse monoclonal IgG, clone MIB-1, Dako) at 1/50 dilution was added and incubated for 1 hour at room temperature. Sections were washed and incubated with biotinylated secondary IgG antibody (1/200 dilution; Vector Labs Inc.), for 45 minutes at room temperature. Subsequently, slides were washed and incubated with ABC Elite reagents (Vector Labs Inc.), for 30 minutes at room temperature. […] Sections were counterstained with thionine, dehydrated and mounted.

[4] = tested on: NF-κB; assay: Inhibition of NF-κB signaling in LPS-stimulated T84 cells, Western blot; format: cell-based, human
Method: Approximately 1.5×10^6 T84 cells were seeded into 100 mm dishes and cultured essentially as described (Shailubhai et al. 2000). At 85-90% confluence, cells were washed and treated with 10 μg/ml lipopolysaccharides (LPS) from Escherichia coli (Sigma-Aldrich, St. Louis, Mo.) for 4 h. Subsequent to LPS treatment, cells were washed and replenished with fresh media containing 8-Bromo-cyclic GMP (8-Br-cGMP) at 0, 0.1, 1, 10, 100 and 1000 μM (Enzo Life Science, Farmingdale, N.Y.), or SP-333 at 0, 0.01, 0.1, 1 and 10 μM together with 500 μM of phosphodiesterase inhibitor Zaprinast (Sigma-Aldrich, St. Louis, Mo.) for 16 h before harvest. For analyzing phosphorylation status of IKK-α/β, T84 cells were stimulated with LPS (10 μg/ml) for 4 h followed by treatment with 0.1 and 1.0 μM of SP-333 in the presence of 500 μM Zaprinast, for 2 h. The control cells (without LPS treatment) were washed and refilled with fresh media and harvested simultaneously with treated cells. Nuclear and cytosolic extracts were prepared by the previously described method (Aiamkitsumrit et al. 2007). Protein concentration was measured with a Bio-Rad protein assay kit (Bio-Rad, Hercules, Calif.). The extracts were stored at −80° C. until use.
T84 cells at 85-90% confluence were washed and treated with 10 μg/ml Escherichia coli LPS (Sigma-Aldrich, St. Louis, Mo.) for 4 h.
Western Blot analysis: This was performed essentially as described^21 employing either 50 μg of cytoplasmic or 25 μg proteins of the nuclear fractions. The blots were probed overnight with primary antibodies of interest (anti-p65 antibody, 1:200 dilution; anti-IκB antibody 1:500 dilution; anti-phosphorylated p65 antibody, 1:250 dilution; anti-phosphorylated IκB antibody 1:250 dilution; all were from Santa Cruz Biotechnology (Santa Cruz, Calif.). Anti-IKK-β and phosphorylated IKK-α/β (Ser 176/180) were purchased from Cell Signaling Technology, Boston, Mass. and used at 1:500 dilution; anti-mouse or anti-rabbit antibodies conjugated to […] were used for chemiluminescence detection as recommended by manufacturer (GE Healthcare, Piscataway, N.J.).

[5] = tested on: Src; assay: Activation of Src and GCRA-mediated cGMP production by T84 cells (FIG. 13); format: cell-based, human; conditions: activation of Src
[6] = tested on: NF-κB; assay: Inhibition of NF-κB signaling in LPS-stimulated T84 cells, Western blot; format: cell-based, human; conditions: zaprinast 500 μM alone
[7] = format: in vitro ADME
Method: The potency of test peptides to stimulate cGMP synthesis in T84 cells was assayed by a published procedure (Shailubhai et al. 2000). Briefly, confluent monolayers of T-84 cells in 24-well plates were washed twice with 250 μl of DMEM containing 50 mM HEPES (pH 7.4), pre-incubated at 37° C. for 10 min with 250 μl of DMEM containing 50 mM HEPES (pH 7.4) and 1 mM isobutylmethylxanthine (IBMX), followed by incubation with test peptide for 30 min. The medium was aspirated, and the reaction was terminated by the addition of 3% perchloric acid. Following centrifugation, and neutralization with 0.1 N NaOH, the resulting supernatant was used directly for measurements of intracellular cGMP using an ELISA kit (Caymen Chemical, Ann Arbor, Mich.). Results are expressed as pmol of cGMP/mg of protein in the cell extracts.
Plecanatide and SP-333 were incubated in simulated intestinal fluid (SIF) for 6-24 h. Inactivated SIF was used as a control. Following the treatment, samples were analyzed by HPLC by cGMP production in T84 cells. […] The active metabolite, SP-338 was characterized by MS and MS/MS and identified to be formed via removal of carboxyl terminal leucine possibly due to cleavage by carboxypeptidases.

[8] = target: guanylate cyclase C (GC-C) receptor (human, UniProt P25092 24-1073); assay: cell-based or functional assay
Sequence of guanylate cyclase C (GC-C) receptor (P25092 24-1073): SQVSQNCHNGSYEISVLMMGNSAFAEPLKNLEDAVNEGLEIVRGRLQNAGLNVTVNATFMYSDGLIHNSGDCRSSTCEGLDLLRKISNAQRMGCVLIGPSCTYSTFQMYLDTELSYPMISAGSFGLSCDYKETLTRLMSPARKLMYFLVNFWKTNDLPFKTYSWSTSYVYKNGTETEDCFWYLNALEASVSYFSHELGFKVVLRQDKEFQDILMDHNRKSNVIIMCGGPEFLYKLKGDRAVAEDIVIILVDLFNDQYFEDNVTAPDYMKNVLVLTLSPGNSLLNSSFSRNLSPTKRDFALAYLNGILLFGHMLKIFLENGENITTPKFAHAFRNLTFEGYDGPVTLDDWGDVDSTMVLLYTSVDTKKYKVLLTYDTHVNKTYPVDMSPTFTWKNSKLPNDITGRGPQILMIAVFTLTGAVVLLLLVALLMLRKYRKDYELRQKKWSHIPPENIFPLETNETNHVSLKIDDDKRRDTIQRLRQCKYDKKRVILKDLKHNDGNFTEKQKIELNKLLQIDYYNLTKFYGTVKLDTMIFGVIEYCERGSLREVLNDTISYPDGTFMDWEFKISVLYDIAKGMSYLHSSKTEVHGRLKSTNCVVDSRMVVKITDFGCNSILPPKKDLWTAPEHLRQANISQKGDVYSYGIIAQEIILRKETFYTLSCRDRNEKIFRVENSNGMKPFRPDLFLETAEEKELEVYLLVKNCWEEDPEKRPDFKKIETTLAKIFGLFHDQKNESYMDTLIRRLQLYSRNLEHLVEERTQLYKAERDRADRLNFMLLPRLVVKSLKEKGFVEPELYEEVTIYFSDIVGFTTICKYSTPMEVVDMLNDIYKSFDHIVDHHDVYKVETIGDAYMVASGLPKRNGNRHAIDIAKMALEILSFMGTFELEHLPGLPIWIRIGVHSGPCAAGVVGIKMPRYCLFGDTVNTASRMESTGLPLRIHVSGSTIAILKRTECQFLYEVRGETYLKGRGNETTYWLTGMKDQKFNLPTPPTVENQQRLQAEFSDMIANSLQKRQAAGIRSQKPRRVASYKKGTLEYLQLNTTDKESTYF

[9] = 5-ASA 100 mg/kg, vs DSS alone or DSS plus vehicle

Nc1ccc(O)c(C(=O)O)c1 [5-ASA, 5-aminosalicylic acid, reference compound]
MPO activity compared to DSS treated animals [1]: considerably reduced
initial MPO activity ([1]; p=0.010): 0.029±0.004 units/minute
histological evaluation of colon tissues (crypts) ([2]; 5-ASA 100 mg/kg): only patchy loss of crypts
mean DAI scores [2, 9]: lower
mean scores of colitis severity [2, 9]: lower
histopathology score ([2]; DSS+5-ASA 100 mg/kg, representative image FIG. 10F): 2
proportion of Ki-67 positive crypts [3]: 53.5±12.33%

Nc1nc2c(nc(Br)n2[C@@H]2O[C@@H]3COP(=O)(O)O[C@H]3[C@H]2O)c(=O)[nH]1 [8-Br-cGMP, 8-Bromo-cyclic GMP, reference compound]
levels of phospho-p65 ([4]; LPS 10 μg/ml 4 h, then 8-Br-cGMP (1 mM) 16 h, zaprinast 500 μM): reduced levels of phospho-p65 in a dose-dependent manner

[Cl][Hg][Cl] [HgCl2]
GCRA-mediated cGMP production by T84 cells [5]: inhibited

CCCOc1ccccc1-c1nc2nn[nH]c2c(=O)[nH]1 [zaprinast, reference compound]
cGMP levels [6]: did not increase cGMP levels
NF-κB activation ([4]; zaprinast 500 μM alone, T84 cells): did not inhibit NF-κB activation

Asn^1-Asp^2-Glu^3-Cys^4-Glu^5-Leu^6-Cys^7-Val^8-Asn^9-Val^10-Ala^11-Cys^12-Thr^13-Gly^14-Cys^15 (NDECELCVNVACTGC) [SP-338]
biological activity of the major metabolite of plecanatide in SIF [7]: appears to retain biological activity

NDECELCVNVACTGCL (disulfide 4-12, 7-15) [Plecanatide (SP-304)]
cGMP accumulation in T84 cells (EC50) [8]: 189 nM

[dN]DECELCVNVACTGC[dL] (disulfide 4-12, 7-15) [SP-333]
cGMP accumulation in T84 cells (EC50) [8]: 283 nM
cGMP synthesis in T84 cells (EC50) [8]: 283 nM
